Assay results: patent US6437184B1, “Oxime compounds, their use, and intermediates for their production” (Sumitomo Chemical Company, Limited, priority 1997, dated 2002)

Experiments:
[1] = test system: Cydia pomonella; assay: Insecticidal test against Cydia pomonella; format: in vivo; details: 168 h, 100 ppm water dilution, 0.2 ml on surface of artificial diet, eggs just before hatching, after 7 days
Protocol: A water dilution (100 ppm) of a test compound formulation obtained according to Formulation Example 1 was added dropwise at a volume of 0.2 ml and spread over the surface of an artificial diet having a weight of 3 g, which had been prepared in a 30 ml polyethylene cup. After air drying, placed in the cup was a piece of wax paper (about 2.5 cm square) having about 20 eggs which had been laid by Cydia pomonella and were just before hatching. Four pieces of such wax paper were used for each treatment. After 7 days, the mortality of the larvae was determined.

[2] = test system: Musca domestica; assay: Insecticidal test against Musca domestica; format: in vivo; details: 24 h, 500 ppm water dilution, 0.7 ml on filter paper with sucrose, female adults, after 1 day, read-out: mortality
Protocol: In the bottom of a polyethylene cup having a diameter of 5.5 cm was placed a piece of filter paper having the same size. A 200-fold water dilution (500 ppm) of a test compound formulation obtained according to Formulation Example 1 was added dropwise at a volume of 0.7 ml on the filter paper, and about 30 mg of sucrose as a diet was uniformly placed thereon. Ten female adults of houseflies (Musca domestica) were set free in the cup, and the cup was kept covered. After 1 day, the survival of the adults was determined to determine the mortality.

SMILES	mortality at 100 µg/mL [1]	mortality at 500 µg/mL [2]
ClC(Cl)=CCOc1cc(Cl)c(OCCCC=NOCc2ccccc2)c(Cl)c1 [(27), 4-(2,6-dichloro-4-(3,3-dichloro-2-propenyloxy)phenoxy)butanal O-benzyloxime]	≥ 80%	–
CCCON=Cc1cccc(COc2c(Cl)cc(OCC=C(Cl)Cl)cc2Cl)c1 [(379), 3-((2,6-dichloro-4-(3,3-dichloro-2-propenyloxy)phenoxy)methyl)benzaldehyde O-propyloxime]	≥ 80%	–
CC(C)ON=CCOCCCCCOc1c(Cl)cc(OCC=C(Cl)Cl)cc1Cl [(153), 5-(2,6-dichloro-4-(3,3-dichloro-2-propenyloxy)phenoxy)pentyloxyacetaldehyde O-isopropyloxime]	–	≥ 80%
CC(=NOCC=C(Br)Br)c1ccc(OCCCCOc2c(Cl)cc(OCC=C(Cl)Cl)cc2Cl)cc1 [(300), 4′-(4-(2,6-dichloro-4-(3,3-dichloro-2-propenyloxy)phenoxy)butyloxy)acetophenone O-(3,3-dibromo-2-propenyl)oxime]	≥ 80%	–
CCc1cc(OCC=C(Cl)Cl)cc(CC)c1OCCCCOCC=NOCC=C(Cl)Cl [(10), 4-(2,6-diethyl-4-(3,3-dichloro-2-propenyloxy)phenoxy)butyloxyacetaldehyde O-(3,3-dichloro-2-propenyl)oxime]	≥ 80%	–
CCCON=CCCCCOc1c(Cl)cc(OCC=C(Cl)Cl)cc1Cl [(18), 5-(2,6-dichloro-4-(3,3-dichloro-2-propenyloxy)phenoxy)pentanal O-n-propyloxime]	–	≥ 80%
CON=CCOCCCCCOc1c(Cl)cc(OCC=C(Cl)Cl)cc1Cl [(158), 5-(2,6-dichloro-4-(3,3-dichloro-2-propenyloxy)phenoxy)pentyloxyacetaldehyde O-methyloxime]	–	≥ 80%
ClC(Cl)=CCOc1cc(Cl)c(OCCCCCON=C2CCSCC2)c(Cl)c1 [(572), tetrahydrothiopyran-4-one O-(5-(2,6-dichloro-4-(3,3-dichloro-2-propenyloxy)phenoxy)pentyl)oxime]	≥ 80%	–
CC(COCCCCCOc1c(Cl)cc(OCC=C(Cl)Cl)cc1Cl)=NOCc1ccccc1 [(175), 5-(2,6-dichloro-4-(3,3-dichloro-2-propenyloxy)phenoxy)pentyloxyacetone O-benzyloxime]	–	≥ 80%
CCON=CCOCCCCOc1c(Cl)cc(OCC=C(Cl)Cl)cc1Cl [(1), 4-(2,6-dichloro-4-(3,3-dichloro-2-propenyloxy)phenoxy)butyloxyacetaldehyde O-ethyloxime]	–	≥ 80%
CCON=C(C)COCCCCCOc1c(Cl)cc(OCC=C(Cl)Cl)cc1Cl [(176), 5-(2,6-dichloro-4-(3,3-dichloro-2-propenyloxy)phenoxy)pentyloxyacetone O-ethyloxime]	–	≥ 80%
CCCCOCC=NOCCCCCOc1c(Cl)cc(OCC=C(Cl)Cl)cc1Cl [(565), n-butyloxyacetaldehyde O-(5-(2,6-dichloro-4-(3,3-dichloro-2-propenyloxy)phenoxy)pentyl)oxime]	–	≥ 80%
CCCCCC=NOCCCCCCOc1c(Cl)cc(OCC=C(Cl)Cl)cc1Cl [(551), hexanal O-(6-(2,6-dichloro-4-(3,3-dichloro-2-propenyloxy)phenoxy)hexyl)oxime]	–	≥ 80%
CCON=C(C)c1ccc(OCCCCOc2c(Cl)cc(OCC=C(Cl)Cl)cc2Cl)cc1 [(297), 4′-(4-(2,6-dichloro-4-(3,3-dichloro-2-propenyloxy)phenoxy)butyloxy)acetophenone O-ethyloxime]	≥ 80%	–
COc1ccc(CON=CCCCCOc2c(Cl)cc(OCC=C(Cl)Cl)cc2Cl)cc1 [(22), 5-(2,6-dichloro-4-(3,3-dichloro-2-propenyloxy)phenoxy)pentanal O-(4-methoxybenzyl)oxime]	–	≥ 80%
ClC(Cl)=CCON=Cc1cccc(COc2c(Cl)cc(OCC=C(Cl)Cl)cc2Cl)c1 [(323), 3-(2,6-dichloro-4-(3,3-dichloro-2-propenyloxy)phenoxymethyl)benzaldehyde O-(3,3-dichloro-2-propenyl)oxime]	≥ 80%	–
CCON=Cc1ccc(OCCOc2c(Cl)cc(OCC=C(Cl)Cl)cc2Cl)cc1 [(287), 4-(2-(2,6-dichloro-4-(3,3-dichloro-2-propenyloxy)phenoxy)-ethoxy)benzaldehyde O-ethyloxime]	–	≥ 80%
CCCCON=Cc1ccc(COc2c(Cl)cc(OCC=C(Cl)Cl)cc2Cl)cc1 [(376), 4-((2,6-dichloro-4-(3,3-dichloro-2-propenyloxy)phenoxy)methyl)benzaldehyde O-butyloxime]	–	≥ 80%
CON=Cc1ccc(CCCOc2c(Cl)cc(OCC=C(Cl)Cl)cc2Cl)cc1 [(365), 4-(3-(2,6-dichloro-4-(3,3-dichloro-2-propenyloxy)phenoxy)propyl)benzaldehyde O-methyloxime]	≥ 80%	–

SMILES	mortality at 100 µg/mL [1]	mortality at 500 µg/mL [2]
C=CCON=CCCCCOc1c(Cl)cc(OCC=C(Cl)Cl)cc1Cl [(19), 5-(2,6-dichloro-4-(3,3-dichloro-2-propenyloxy)phenoxy)pentanal O-(2-propenyl)oxime]	–	≥ 80%
ClC(Cl)=CCOc1cc(Cl)c(OCCCC=NOCC=C(Br)Br)c(Cl)c1 [(25), 4-(2,6-dichloro-4-(3,3-dichloro-2-propenyloxy)phenoxy)butanal O-(3,3-dibromo-2-propenyl)oxime]	≥ 80%	–
ClC(Cl)=CCOc1cc(Cl)c(OCCCCCCON=C2CCSCC2)c(Cl)c1 [(575), tetrahydrothiopyran-4-one O-(6-(2,6-dichloro-4-(3,3-dichloro-2-propenyloxy)phenoxy)hexyl)oxime]	≥ 80%	–
CC(=NOCCCCOc1c(Cl)cc(OCC=C(Cl)Cl)cc1Cl)c1ccccn1 [(689), methyl 2-pyridyl ketone O-(4-(2,6-dichloro-4-(3,3-dichloro-2-propenyloxy)phenoxy)butyl)oxime]	–	≥ 80%
CC(=NOC(C)(C)C)c1ccc(OCCCOc2c(Cl)cc(OCC=C(Cl)Cl)cc2Cl)cc1 [(294), 4′-(3-(2,6-dichloro-4-(3,3-dichloro-2-propenyloxy)phenoxy)propyloxy)acetophenone O-tert-butyloxime]	≥ 80%	–
O=[N+]([O-])c1ccc(C=NOCCCCOc2c(Cl)cc(OCC=C(Cl)Cl)cc2Cl)cc1 [(578), 4-nitrobenzaldehyde O-(4-(2,6-dichloro-4-(3,3-dichloro-2-propenyloxy)phenoxy)butyl)oxime]	≥ 80%	–
ClC(Cl)=CCOc1cc(Cl)c(OCc2cccc(C=NOCc3ccccc3)c2)c(Cl)c1 [(324), 3-(2,6-dichloro-4-(3,3-dichloro-2-propenyloxy)phenoxymethyl)benzaldehyde O-benzyloxime]	≥ 80%	–
CC(C)CON=CCOCCCCCOc1c(Cl)cc(OCC=C(Cl)Cl)cc1Cl [(155), 5-(2,6-dichloro-4-(3,3-dichloro-2-propenyloxy)phenoxy)pentyloxyacetaldehyde O-isobutyloxime]	–	≥ 80%
CCON=CCCCOc1c(Cl)cc(OCC=C(Cl)Cl)cc1Cl [(28), 4-(2,6-dichloro-4-(3,3-dichloro-2-propenyloxy)phenoxy)butanal O-ethyloxime]	–	≥ 80%
CON=CCOCCCCOc1c(Cl)cc(OCC=C(Cl)Cl)cc1Cl [(7), 4-(2,6-dichloro-4-(3,3-dichloro-2-propenyloxy)phenoxy)butyloxyacetaldehyde O-methyloxime]	–	≥ 80%
CC=NOCCCCCOc1c(Cl)cc(OCC=C(Cl)Cl)cc1Cl [(541), acetaldehyde O-(5-(2,6-dichloro-4-(3,3-dichloro-2-propenyloxy)phenoxy)pentyl)oxime]	–	≥ 80%
CON=CCCCOc1c(Cl)cc(OCC=C(Cl)Cl)cc1Cl [(29), 4-(2,6-dichloro-4-(3,3-dichloro-2-propenyloxy)phenoxy)butanal O-methyloxime]	–	≥ 80%
C=CCON=CCOCCCCOc1c(Cl)cc(OCC=C(Cl)Cl)cc1Cl [(4), 4-(2,6-dichloro-4-(3,3-dichloro-2-propenyloxy)phenoxy)butyloxyacetaldehyde O-(2-propenyl)oxime]	–	≥ 80%
ClC(Cl)=CCOc1cc(Cl)c(OCCCCC=NOCC(Cl)(Cl)Cl)c(Cl)c1 [(170), 5-(2,6-dichloro-4-(3,3-dichloro-2-propenyloxy)phenoxy)pentanal O-(2,2,2-trichloroethyl)oxime]	–	≥ 80%
C=CCON=Cc1cccc(COc2c(Cl)cc(OCC=C(Cl)Cl)cc2Cl)c1 [(330), 3-(2,6-dichloro-4-(3,3-dichloro-2-propenyloxy)phenoxymethyl)benzaldehyde O-allyl oxime]	–	≥ 80%
CC(C)=NOCCCCCOc1c(Cl)cc(OCC=C(Cl)Cl)cc1Cl [(560), acetone O-(5-(2,6-dichloro-4-(3,3-dichloro-2-propenyloxy)phenoxy)pentyl)oxime]	–	≥ 80%
ClC(Cl)=CCOc1cc(Cl)c(OCCCCCON=C2CCCCC2)c(Cl)c1 [(566), cyclohexanone O-(5-(2,6-dichloro-4-(3,3-dichloro-2-propenyloxy)phenoxy)pentyl)oxime]	–	≥ 80%
CCON=CCOCCCCCOc1c(Cl)cc(OCC=C(Cl)Cl)cc1Cl [(159), 5-(2,6-dichloro-4-(3,3-dichloro-2-propenyloxy)phenoxy)pentyloxyacetaldehyde O-ethyloxime]	–	≥ 80%
CON=Cc1ccc(OCCCOc2c(Cl)cc(OCC=C(Cl)Cl)cc2Cl)cc1 [(305), 4-(3-(2,6-dichloro-4-(3,3-dichloro-2-propenyloxy)phenoxy)propyloxy)benzaldehyde O-methyloxime]	–	≥ 80%
